Test: log P by HPLC on a reversed-phase column (C18), EEC Directive 79/831 Annex V.A8
Type: physicochemical
Conditions: HCOOH
Experimental: The stated log P values were determined in accordance with EEC Directive 79/831 Annex V.A8 by HPLC (High Performance Liquid Chromatography) using a reversed-phase column (C18).

Compound | log P (HCOOH)
Cc1cc(-n2nc(C(F)(F)F)c(I)c2N)ccc1C(=O)NCc1ccccn1 [XI-A-095] | XI-A-095: log P (HCOOH): 2.03
Cc1cc(-n2nc(C)c(-c3ccccc3Cl)c2N)ccc1C(=O)NCc1ccccn1 [I-A-Q2-373] | I-A-Q2-373: log P (HCOOH): 1.64
CC(NC(=O)c1ccc(-n2nc(C(F)(F)F)c(-c3cc(Cl)cc(Cl)c3)c2Br)cc1)C(F)(F)F (centres unmarked) [I-A-Q2-096] | I-A-Q2-096: log P (HCOOH): 5.35
Cc1cc(C)cc(-c2c(C(F)(F)F)nn(-c3ccc(C(=O)NC(C)C(F)(F)F)cc3)c2N)c1 (centres unmarked) [I-A-Q2-178] | I-A-Q2-178: log P (HCOOH): 3.89
CSc1c(-c2cc(Cl)cc(Cl)c2)c(C(F)(F)F)nn1-c1ccc(C(=O)NCC(F)(F)C(F)F)c(C)c1 [I-A-Q2-282] | I-A-Q2-282: log P (HCOOH): 5.25
CC(NC(=O)c1ccc(-n2nc(C(F)(F)F)c(-c3ccc(Br)cc3)c2N)cc1)c1ccccn1 (centres unmarked) [I-A-Q2-192] | I-A-Q2-192: log P (HCOOH): 2.89
Cc1cc(-n2nc(C(F)(F)F)c(-c3ccc(Br)cc3)c2N)ccc1C(=O)NCC(F)(F)C(F)F [I-A-Q2-303] | I-A-Q2-303: log P (HCOOH): 3.70
Cc1cc(-n2nc(C(F)(F)F)c(-c3cc(Cl)cc(Cl)c3)c2N)ccc1C(=O)NCC[S+](C)[O-] (centres unmarked) [I-A-Q2-273] | I-A-Q2-273: log P (HCOOH): 2.98
Cc1cc(-n2nc(C(F)(F)F)c(-c3cc(Cl)cc(Cl)c3)c2N)ccc1C(=O)NC(CC(F)(F)F)C(F)(F)F (centres unmarked) [I-A-Q2-217] | I-A-Q2-217: log P (HCOOH): 4.70
Cc1cc(-n2nc(C(F)(F)F)c(-c3ccc(F)c(F)c3)c2N)ccc1C(=O)NCc1ccccn1 [I-A-Q2-355] | I-A-Q2-355: log P (HCOOH): 2.50
Cc1cc(-n2nc(C(F)(F)F)c(-c3cc(Cl)cc(Cl)c3)c2N)ccc1C(=O)NC(C)c1ccc(C(F)(F)F)cn1 (centres unmarked) [I-A-Q2-240] | I-A-Q2-240: log P (HCOOH): 4.70
CCOC(=O)N1CCC(NC(=O)c2ccc(-n3nc(C(F)(F)F)c(-c4cc(Cl)cc(Cl)c4)c3N)cc2C)CC1 [I-A-Q2-204] | I-A-Q2-204: log P (HCOOH): 4.22
Cc1cc(-n2nc(C(F)(F)F)c(-c3cc(Cl)cc(Cl)c3)c2N)ccc1C(=O)N(C)C(C)c1ccccn1 (centres unmarked) [I-A-Q2-210] | I-A-Q2-210: log P (HCOOH): 4.28
Cc1cc(-n2nc(C(F)(F)c3cccc(C(F)(F)F)c3)c(-c3cc(Cl)cc(C(F)(F)F)c3)c2N)ccc1C(=O)NCC(F)(F)C(F)F [I-A-Q2-286] | I-A-Q2-286: log P (HCOOH): 4.89
Cc1cc(-n2nc(C(F)(F)F)c(-c3cc(Cl)cc(Cl)c3)c2N)ccc1C(=O)NCc1cc(F)cc(F)c1 [I-A-Q2-040] | I-A-Q2-040: log P (HCOOH): 4.57
Cc1cc(-n2nc(C(F)(F)F)c(-c3cc(Cl)cc(Cl)c3)c2N)ccc1C(=O)NC(c1ccccn1)C(F)(F)F (centres unmarked) [I-A-Q2-054] | I-A-Q2-054: log P (HCOOH): 2.31
Nc1c(-c2ccc(Cl)cc2)c(C(F)(F)F)nn1-c1ccc(C(=O)NC2CC2)cc1 [I-A-Q2-163] | I-A-Q2-163: log P (HCOOH): 3.13
Cc1cccc(CNC(=O)c2ccc(-n3nc(C(F)(F)F)c(-c4cc(Cl)cc(Cl)c4)c3N)cc2C)n1 [I-A-Q2-042] | I-A-Q2-042: log P (HCOOH): 2.93
Cc1cc(-n2nc(C(F)(F)F)c(-c3cc(Cl)cc(Cl)c3)c2N)ccc1C(=O)NC(C)(C)C [I-A-Q2-221] | I-A-Q2-221: log P (HCOOH): 4.51
Cc1cc(-n2nc(C)c(-c3cccc(Cl)c3)c2N)ccc1C(=O)NCC(F)(F)C(F)F [I-A-Q2-331] | I-A-Q2-331: log P (HCOOH): 2.85
COC(=O)c1ccc(-n2nc(C(F)(F)F)c(Br)c2N)cc1C [XI-A-082] | XI-A-082: log P (HCOOH): 3.52

Compound | log P (HCOOH)
CC(=O)Nc1c(-c2cc(Cl)cc(Cl)c2)c(C(F)(F)F)nn1-c1ccc(C(=O)NCc2ccccn2)c(C)c1 [I-A-Q2-197] | I-A-Q2-197: log P (HCOOH): 2.76
Cc1cc(-n2nc(C(F)(F)OC(F)(F)C(F)(F)OC(F)(F)F)c(-c3cc(Cl)cc(C(F)(F)F)c3)c2N)ccc1C(=O)NCC(F)(F)C(F)F [I-A-Q2-287] | I-A-Q2-287: log P (HCOOH): 5.33
Nc1c(-c2ccc(Cl)cc2)c(C(F)(F)F)nn1-c1ccc(C(=O)NCC(F)F)cc1 [I-A-Q2-164] | I-A-Q2-164: log P (HCOOH): 3.27
Cc1cc(-n2nc(C(F)(F)F)c(-c3ccc(Cl)cc3)c2N)ccc1C(=O)NCC(F)(F)C(F)F [I-A-Q2-302] | I-A-Q2-302: log P (HCOOH): 3.61
Nc1c(-c2cc(Cl)cc(Cl)c2)c(C(F)(F)F)nn1-c1ccc(C(=O)NCc2ccccn2)cc1 [I-A-Q2-134] | I-A-Q2-134: log P (HCOOH): 3.11
Nc1c(I)c(C(F)(F)F)nn1-c1ccc(C(=O)O)cc1 [XI-A-045] | XI-A-045: log P (HCOOH): 2.47
Nc1c(-c2ccc(F)c(F)c2)c(C(F)(F)F)nn1-c1ccc(C(=O)NCc2ccccn2)cc1 [I-A-Q2-177] | I-A-Q2-177: log P (HCOOH): 2.27
Cc1cc(-n2nc(C(F)(F)F)c(-c3cc(Cl)cc(Cl)c3)c2N)ccc1C(=O)NCCNC(=O)c1ccccn1 [I-A-Q2-036] | I-A-Q2-036: log P (HCOOH): 3.68
Nc1c(-c2cccc(Br)c2)c(C(F)(F)F)nn1-c1ccc(C(=O)NCc2ccccn2)cc1 [I-A-Q2-174] | I-A-Q2-174: log P (HCOOH): 2.50
Nc1c(-c2cc(Cl)cc(Cl)c2)c(C(F)(F)F)nn1-c1ccc(C(=O)NC2CC2)cn1 [I-A-Q2-106] | I-A-Q2-106: log P (HCOOH): 4.30
Nc1c(-c2cccc(Cl)c2)c(C(F)(F)F)nn1-c1ccc(C(=O)NC2CCCCC2)cc1 [I-A-Q2-093] | I-A-Q2-093: log P (HCOOH): 4.00
Cc1cc(-n2nc(C(F)(F)F)c(-c3cc(Cl)cc(Cl)c3)c2N)ccc1C(=O)NCC(F)F [I-A-Q2-017] | I-A-Q2-017: log P (HCOOH): 4.04
Nc1c(-c2cc(Cl)cc(Cl)c2)c(C(F)(F)F)nn1-c1ccc(C(=O)NCC(F)F)cc1 [I-A-Q2-140] | I-A-Q2-140: log P (HCOOH): 3.93
CC(NC(=O)c1ccc(-n2nc(C(F)(F)F)c(-c3cc(F)cc(Cl)c3)c2N)cc1)c1ccccn1 (centres unmarked) [I-A-Q2-088] | I-A-Q2-088: log P (HCOOH): 2.99
Cc1cc(-n2nc(C(F)(F)F)c(-c3cc(Cl)cc(Cl)c3)c2N)ccc1C(=O)NC1CCN(C(=O)C2CC2)CC1 [I-A-Q2-203] | I-A-Q2-203: log P (HCOOH): 3.77
Nc1c(-c2cc(Cl)cc(Cl)c2)c(C(F)(F)F)nn1-c1ccc(C(=O)NCCCC(F)=C(F)F)cc1 [I-A-Q2-073] | I-A-Q2-073: log P (HCOOH): 4.35
Cc1cc(-n2nc(C(F)(F)F)c(-c3cc(Cl)cc(Cl)c3)c2N)ccc1C(=O)NCc1ccc([N+](=O)[O-])cc1 [I-A-Q2-249] | I-A-Q2-249: log P (HCOOH): 4.28
Cc1cc(-n2nc(C(F)(F)F)c(-c3cc(Cl)cc(Cl)c3)c2N)ccc1C(=O)NCCC(F)=C(F)F [I-A-Q2-061] | I-A-Q2-061: log P (HCOOH): 4.45
CNC(=O)c1ccc(-n2nc(C(F)(F)F)c(-c3cc(Cl)cc(Cl)c3)c2N)cc1C [I-A-Q2-013] | I-A-Q2-013: log P (HCOOH): 3.59
CC(NC(=O)c1ccc(-n2nc(C(F)(F)F)c(-c3cc(F)cc(Cl)c3)c2N)cc1)C(F)(F)F (centres unmarked) [I-A-Q2-084] | I-A-Q2-084: log P (HCOOH): 3.89

Same assay, conditions: HCOOH; Table 4, compounds of formula I-A-Q4

Compound | log P (HCOOH)
Nc1c(-c2cc(Cl)cc(Cl)c2)c(C(F)(F)F)nn1-c1ccc(C(=O)O)cc1 [I-A-Q4-087] | I-A-Q4-087: log P (HCOOH): 3.79
CCOC(=O)c1ccc(-n2nc(C(F)(F)F)c(-c3cc(Cl)cc(Cl)c3)c2N)cc1 [I-A-Q4-086] | I-A-Q4-086: log P (HCOOH): 4.93
Nc1c(-c2cc(Cl)cc(Cl)c2)c(C(F)(F)F)nn1-c1ccc(C(=O)O)cn1 [I-A-Q4-064] | I-A-Q4-064: log P (HCOOH): 4.23
Cc1nn(-c2ccc(Cl)cn2)c(N)c1-c1ccc(F)cc1 [I-A-Q4-038] | I-A-Q4-038: log P (HCOOH): 3.84
Cc1nn(-c2ccc(Cl)cn2)c(N)c1-c1ccc(Cl)c(Cl)c1 [I-A-Q4-060] | I-A-Q4-060: log P (HCOOH): 5.02
Nc1c(-c2cc(Cl)cc(Cl)c2)c(C(F)(F)F)nn1-c1ccc(S(=O)(=O)NC2CC2)c(Cl)c1 [I-A-Q4-110] | I-A-Q4-110: log P (HCOOH): 4.49
Nc1c(-c2cc(F)c(F)c(F)c2)c(C(F)(F)F)nn1-c1ccc(Cl)cn1 [I-A-Q4-053] | I-A-Q4-053: log P (HCOOH): 4.89
Nc1c(-c2cc(F)cc(Cl)c2)c(C(F)(F)F)nn1-c1ccc(C(=O)O)cc1 [I-A-Q4-100] | I-A-Q4-100: log P (HCOOH): 3.32

Same assay, conditions: HPLC, reversed-phase C18, mobile phase with formic acid

Compound | log P (HCOOH)
Cc1nn(-c2ccc(-n3cncn3)c(C#N)c2)c(N)c1-c1ccc(F)cc1 [I-A-Q1-059] | I-A-Q1-059: log P (HCOOH): 2.30
N#Cc1cc(-n2nc(C(F)(F)F)c(-c3cc(Cl)cc(Cl)c3)c2N)ccc1-n1cncn1 [I-A-Q1-024] | I-A-Q1-024: log P (HCOOH): 3.90
Cc1nn(-c2ccc(-n3cncn3)c(C#N)c2)c(N)c1-c1ccc(F)cc1F [I-A-Q1-057] | I-A-Q1-057: log P (HCOOH): 2.35
N#Cc1cc(-n2nc(C(F)(F)Oc3ccccc3Cl)c(-c3cc(Cl)cc(C(F)(F)F)c3)c2N)ccc1-n1cncn1 [I-A-Q1-073] | I-A-Q1-073: log P (HCOOH): 4.51
N#Cc1cc(-n2nc(C(F)(F)F)c(-c3cc(Cl)cc(Cl)c3)c2N)ccc1-n1cnc2ccccc21 [I-A-Q1-081] | I-A-Q1-081: log P (HCOOH): 4.28
N#Cc1cc(-n2nc(C(F)(F)F)c(-c3cc(Cl)cc(Cl)c3)c2N)ccc1-n1cnc(C(N)=O)n1 [I-A-Q1-088] | I-A-Q1-088: log P (HCOOH): 3.06

Same assay, conditions: HPLC, reversed-phase C18, mobile phase with formic acid; read-out: log P (HCOOH)

Compound | chromatographic logP
N#Cc1cc(N)ccc1-n1cncn1 [5-Amino-2-[1,2,4]triazol-1-ylbenzonitrile] | 1.01
